# Earlier results as cited in PMC8198792, “Prediction of Anticancer Peptides with High Efficacy and Low Toxicity by Hybrid Model Based on 3D Structure of Peptides” (International Journal of Molecular Sciences, 2021).
# Read-outs that look alike come from different tables or passages of the source.
# Test system: cancer cell lines
# Design: method as in 6 sources, ref CancerPPD [45] and SATPdb ||| ref CancerPPD/SATPdb ||| ref CancerPPD, SATPdb, Swissprot (PDB) ||| ref CancerPPD/SATPdb/Swissprot(PDB) ||| ref CancerPPD / SATPdb ||| ...
# Settings: cited from earlier work
# Excerpt: Supplement ijms-22-05630-s001.zip/ACPs(seguence).xlsx, sheet "D1" | column: Activity || Supplement ijms-22-05630-s001.zip/ACPs(seguence).xlsx, sheet "D2" | column: Activity || Supplement ijms-22-05630-s001.zip/ACPs(seguence).xlsx, sheet "D3" | column: Activity || (+ 2 further places)
# [1] = ACPs dataset D1, 1 = ACP (positive), 0 = non-ACP (negative), label taken from databases, ref CancerPPD [45] and SATPdb
# [2] = ACPs dataset D4 (sheet "D4"), label 1 = ACP, experimentally validated ACPs, ref CancerPPD [45] and SATPdb
# [3] = ACPs dataset D5 (sheet "D5"), label 1 = ACP (positive set), sequences with CancerPPD/SATPdb ID, ref CancerPPD, SATPdb
# [4] = ACPs dataset sheet D2, 1 = ACP (CancerPPD/SATPdb ID), 0 = non-ACP (Swissprot/PDB ID), ref CancerPPD, SATPdb, Swissprot (PDB)
# [5] = ACPs dataset D3 (supplement sheet "D3"), 1 = ACP, 0 = non-ACP, ref CancerPPD [45] and SATPdb
# [6] = ACPs dataset D4 (sheet "D4"), label 1 = ACP (CancerPPD ID), 0 = non-ACP (non-anticancer AMP, SATPdb ID), ref CancerPPD [45] and SATPdb
# [7] = ACPs dataset D5 (sheet "D5"), label 1 = ACP (positive set), 0 = non-ACP (negative set), ref CancerPPD [45] and SATPdb
# [8] = ACPs dataset D2 (supplement ACPs(seguence).xlsx, sheet D2), dataset label 1/0 (ACP / non-ACP), entries identified by Swissprot(PDB ID), ref CancerPPD/SATPdb/Swissprot(PDB)
# [9] = ACPs dataset D5, sheet "D5", label 1 = ACP, 0 = non-ACP, ref CancerPPD [45] and SATPdb
# [10] = ACPs dataset D3 (sheet "D3"), label 1 = ACP, 0 = non-ACP, ref CancerPPD/SATPdb
# [11] = ACPs dataset D4 (sheet "D4"), label 1 = ACP, 0 = non-ACP, ref CancerPPD / SATPdb
# [12] = ACPs dataset D1, label 1 = ACP, 0 = non-ACP (non-anticancer AMPs from SATPdb), ref CancerPPD/SATPdb
Substance,Activity [1],Activity [2],Activity [3],Activity [4],Activity [6],Activity [7],further results
IYSFDGRDIMTDPSWPQKVIWHGSSPHGVRLVDNYCEAWRTA [satpdb23000],1,1,1,1,,,
DRSTREPIYMSTI [satpdb20500],1,1,1,1,,,
KILRGVAKKIMRTFLRRILTGKK [compound 3321],,,,,1,1,Activity [5]: 1
GILDSFKQFAKGVGKDLIKGAAQGVLSTMSCKLAKTC [satpdb11305],0,,,,0,,
GCVLYPWC [2M6C NMR - A 1-8],,,,0,,0,
PRFWEYWLRLAE [compound 4587],1,1,1,1,,,
ALWKNMLKGIGKLAGQAALGAVKTLVGA [compound 1706],1,1,1,1,,,
MNQGKIWTVVNPAIGIPALLGSVTVIAILVHLAILSHTTWFPAYWQGGVKKAA [1KZU X-ray 2.50 A/D/G 1-53],,,,,,,Activity [8]: 0; Activity [9]: 0
FLPIIAGIAAKFLPKIFCTISKKC [compound 4359],1,1,1,1,,,
AIGKFLHSAKKFGKAFVGEIMNS [compound 1041],,1,1,,,,Activity [5]: 1
KKLFKKilkYL [satpdb14386],,,,,,,Activity [10]: 0; Activity [11]: 0; Activity [9]: 0
KRFKKFFKKLKNSVKKRVKKFFRKPRVIGVTFPF [satpdb10654],0,,,,0,,
GIIKKIIKKIIKKI [compound 2840],,,,,1,1,Activity [5]: 1
GLLGPLLKIAAKVGSNLL [compound 4417],1,1,1,1,,,
GIIKKIIIKKIIIKKIIIKKI [compound 1434],1,1,1,1,,,
TMPFLFCNVNDCNFASRNDYSYWL [satpdb12405],1,1,1,1,,,
RICPRIWMECKRDSDCMAQCICVDGHCG [1F2S X-ray 1.79 I 1-28],,,,0,,0,
KCGHKHQCAVHN [satpdb17767],1,1,1,1,,,
MWKWFHNVLSWWWLLADKRPARDYNRK [compound 3074],1,1,1,1,,,
CKGRGKRCREKQRPSDKPRR [satpdb11644],1,1,1,1,,,

Substance,Activity [1],Activity [2],Activity [3],Activity [4],Activity [6],Activity [7],further results
MASRAARLAARLARLALRAL [satpdb10584],0,,,,0,,
ALWKTLLKKVLKAAAK [satpdb14616],,,,,,,Activity [10]: 0; Activity [11]: 0; Activity [9]: 0
KNWKAILKHIIK [satpdb13480],,,,,,,Activity [10]: 0; Activity [11]: 0; Activity [9]: 0
SDQGDVAEPKMHKTAPPFDFEAIPEEYLDDES [3B23 X-ray 2.40 C 1-32],,,,0,,0,
MKVRVDADACIGCGVCENLCPDVFQLGDDGKAKVLQPETDLPCAKDAADSCPTGAISVEE [1VJW X-ray 1.75 A 1-60],,,,,,,Activity [8]: 0; Activity [9]: 0
FLSLIPHAIN AVSAIAKHN [2JQ0 NMR - A 1-19],,,,0,,0,
FIHHIFRGIVHAGRSIGRFLTG [2MCW NMR - A 1-22],,,,0,,0,
GIINTLQKYYSRVRGGRSAVLSSLPKEEQIGKSSTRGRKSSRRKK [satpdb11018],0,,,,0,,
RRPKGRGKRRREKQRPDAVPRR [satpdb18651],1,1,1,1,,,
KWKSFlKTFKSlKKTVlHTlLKAISS [compound 3772],,,,,1,1,Activity [5]: 1
GKWMSLLKHWLK [compound 3656],,,,,1,1,Activity [5]: 1
GWLPTFGKILRKAMQLGPKLIQPI [satpdb12473],,,,,0,,Activity [12]: 0
KWKSFlKTFKSLKKTVLHTLLKAISS [compound 3768],,,,,1,1,Activity [5]: 1
LHCPALVTYNTDTFESMPNPEGRYTFGASCV [satpdb27573],1,1,1,1,,,
KVMAHMK [satpdb14375],,,,,,,Activity [10]: 0; Activity [11]: 0; Activity [9]: 0
GFLDTFKNLALNAAKSAGVSVLNSLSCKLFKTC [satpdb12796],,,,,,,Activity [12]: 0; Activity [11]: 0
PRFWEYWLRAME [compound 4586],1,1,1,1,,,
TGASSEEEDPF [satpdb18128],1,1,1,1,,,
GVFGLLAKAALKGASKLIPHLLPSRQQ [satpdb12176],,,,,0,,Activity [12]: 0
VVGSPSAQDEASPL [satpdb16227],1,1,1,1,,,

Substance,Activity [1],Activity [2],Activity [3],Activity [4],Activity [6],Activity [7],further results
MKFYTIKLPKFLGGIVRAMLGSFRKD [2MVH NMR - A 1-26],,,,0,,0,
AWASFFKKAAHVGKHVGKAALTHYL [satpdb11738],,,,,0,,Activity [12]: 0
GIGKFLHSAKKFAKAFVAEIMNS [compound 1047],,,,,1,1,Activity [5]: 1
LKLGTLVNLAKKIL [satpdb13705],,,,,,,Activity [10]: 0; Activity [11]: 0; Activity [9]: 0
GTLPCGESCVWIPCISAVVGCSCKSKVCYKN [satpdb10694],0,,,,0,,
FVDLKKIANIINSIF [compound 2851],,,,,1,1,Activity [5]: 1
KFPKFRRGIPFLFV [satpdb10093],0,,,,0,,
rrrrrrrrGEDIIRNIARHLAQVGDSMDR [compound 4227],,,,,1,1,Activity [5]: 1
NKWKKILGKIIKVVK [compound 3497],,,,,1,1,Activity [5]: 1
GKWMSLLKHILK [compound 3649],,,,,1,1,Activity [5]: 1
FLGALLGPLMNLLQ [satpdb14038],,,,,,,Activity [10]: 0; Activity [11]: 0; Activity [9]: 0
LLKKLLKKLLKK [satpdb13272],,,,,,,Activity [10]: 0; Activity [11]: 0; Activity [9]: 0
EIPSCESSASPDQSDSSVPPEE [satpdb17950],1,1,1,1,,,
GLLDIVKKVVGAFGSL [compound 4414],1,1,1,1,,,
SNASVWECCSTGSWVPFTCC [satpdb10213],0,,,,0,,
NYQWVPYQGRVPYPRGGLLkLLKklLKKLlKL [compound 3344],,,,,1,1,Activity [5]: 1
IWLTALKFLGKNLGKHLAKQQLAKL [6CL3 NMR - A 1-25],,,,0,,0,
RGFRKHFNKLVKKVKHTISETAHVAKDTAVIAG [satpdb11665],,,,,,,Activity [5]: 0; Activity [11]: 0; Activity [9]: 0
RLYRRLYRRLYRRLYRRLYRRLYRRLYRRLYRKKKKKKK [satpdb14208],,,,,,,Activity [10]: 0; Activity [11]: 0; Activity [9]: 0
QEPHRHSIFTPQTNPRADLEKN [satpdb11381],1,1,1,1,,,
